One molecule from patent publication US20260284422A1, “BRAIN TUMOR TREATMENT OR PREVENTION OF RECURRENCE WITH LOW INTENSITY AND VARIABLE FREQUENCY MAGNETIC STIMULATION” (ACTIPULSE NEUROSCIENCE INC., priority 2023, published 2026) can be followed below.

A short description of the data set: Evans Blue dye uptake into brain (BBB permeability) in mice given rTMS or sham. Type of data set: in vivo, wild-type C57BL/6 mice. An excerpt:
An in vivo mouse model was used to evaluate the use of rTMS to open the BBB. Ten wild-type C57BL/6 mice where anesthetized and received an intravenous (IV) injection of a 2% Evans Blue dye (in a vehicle of 0.9% NaCl). Evans Blue dye (also referred to as EBD or T-1824) is a non-toxic, azo-based injectable dye that presents visually with a dark blue/brown color. The dye has an affinity for serum albumin and is generally used to assess the permeability of the BBB in vivo. Most tissues will present darker, but neural tissue generally remains unstained. Mice injected with Evans Blue dye were then administered rTMS or a sham treatment and a histological analysis of the brain was performed to evaluate changes in permeability of the BBB. rTMS was administered according to Table 1.
The dye was administered as 100 μL 2% Evans blue (in 0.9% NaCl) via retro orbital injection. Mice were then administered rTMS or a sham (no magnetic field), e.g., as shown in the method overview depicted in FIGS. 2 and 3 for either 1 hr. or 30 min. Mice were euthanized, perfused with 10 mL PBS to expel blood from the organs, and analyzed for the presence of hemorrhage and lesion, e.g., as shown in the representative imaging in FIG. 3. Mice presented as lacking hemorrhage, lesion, or any signs of tissue damage.
Brains were then submerged in 20% sucrose for 2 hr. and embedded in optimal cutting temperature compound (OCT compound) and frozen. The brain was then sectioned at 16 μm thickness, rinsed with PBS, and mounted for scanning at 40× magnification. Section imaging was performed using a digital slide scanner.
An imaging software was used to evaluate the pixelate density and area of staining in brain sections for calculating a comparison of Evans Blue dye uptake into the brain tissue.

In the case of `Cc1cc(-c2ccc(/N=N/c3ccc4c(S(=O)(=O)O)cc(S(=O)(=O)O)c(N)c4c3O)c(C)c2)ccc1/N=N/c1ccc2c(S(=O)(=O)O)cc(S(=O)(=O)O)c(N)c2c1O` [Evans Blue, Evans Blue dye], the “Mean area of brain section stained with Evans Blue, rTMS group” value (100 μL 2% Evans blue retro-orbital, then rTMS, 16 μm brain sections, n=4) was determined as 11.12 mm^2. Moreover, the “Mean area of brain section stained with Evans Blue, sham group” value (100 μL 2% Evans blue retro-orbital, then sham (no magnetic field), 16 μm brain sections, n=4) was found to be 5.665 mm^2. Further, the “Difference between means ± SEM of stained area (rTMS vs sham)” value (unpaired t-test, P 0.004, n=4 per group) is recorded as 5.456 ± 1.209 mm^2.
